Reference: the NIST ThermoML archive (doi:10.1021/je700254t)
± gives the expanded uncertainty stated by the source.

Test: xn = mol fraction of the nth substance listed
Details: 101.3 kPa, Liquid, x1 = 1

CCCO [propan-1-ol] + ClC(Cl)Cl
Details | mass density [kg/m3]
288.15 K | 807.69 ± 0.25
293.15 K | 803.703 ± 0.25
298.15 K | 799.692 ± 0.25
303.15 K | 795.65 ± 0.26
308.15 K | 791.576 ± 0.26
313.15 K | 787.466 ± 0.26
